{"source": "ChEMBL document CHEMBL1201862", "about": "“PubChem BioAssay data set” (2004)", "note": "Active and inactive are the calls of the source."}
{"molecular_target": "T1, Aurora kinase A (Homo sapiens, UniProt O14965)", "T1 sequence (O14965 whole entry)": "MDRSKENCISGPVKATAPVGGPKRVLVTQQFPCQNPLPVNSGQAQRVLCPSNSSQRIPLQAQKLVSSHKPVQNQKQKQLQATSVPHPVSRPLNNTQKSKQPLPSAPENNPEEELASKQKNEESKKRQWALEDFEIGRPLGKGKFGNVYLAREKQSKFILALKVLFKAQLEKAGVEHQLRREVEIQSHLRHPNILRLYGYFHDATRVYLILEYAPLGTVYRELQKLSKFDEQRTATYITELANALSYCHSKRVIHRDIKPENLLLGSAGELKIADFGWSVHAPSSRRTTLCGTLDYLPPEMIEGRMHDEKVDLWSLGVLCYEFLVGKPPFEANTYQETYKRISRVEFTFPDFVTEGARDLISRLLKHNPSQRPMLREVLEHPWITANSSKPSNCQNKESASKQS", "type": "functional"}
{"smiles": "NC(COc1cncc(-c2ccc3c(c2)C(=Cc2ccc[nH]2)C(=O)N3)c1)Cc1ccccc1", "note": "(stereo unspecified)", "Ki": "251 nM (active)"}
{"smiles": "O=C1Cc2cc(-c3ccccc3)cnc2N1", "Ki": "20000 nM (active)"}
{"smiles": "O=C1Nc2cc(-c3ccc(O)cc3)ccc2C1=Cc1ccc[nH]1", "Ki": "> 1580 nM (inactive)"}
{"molecular_target": "Tyrosine-protein kinase ABL1 (Homo sapiens, UniProt P00519)", "sequence (P00519 whole entry)": "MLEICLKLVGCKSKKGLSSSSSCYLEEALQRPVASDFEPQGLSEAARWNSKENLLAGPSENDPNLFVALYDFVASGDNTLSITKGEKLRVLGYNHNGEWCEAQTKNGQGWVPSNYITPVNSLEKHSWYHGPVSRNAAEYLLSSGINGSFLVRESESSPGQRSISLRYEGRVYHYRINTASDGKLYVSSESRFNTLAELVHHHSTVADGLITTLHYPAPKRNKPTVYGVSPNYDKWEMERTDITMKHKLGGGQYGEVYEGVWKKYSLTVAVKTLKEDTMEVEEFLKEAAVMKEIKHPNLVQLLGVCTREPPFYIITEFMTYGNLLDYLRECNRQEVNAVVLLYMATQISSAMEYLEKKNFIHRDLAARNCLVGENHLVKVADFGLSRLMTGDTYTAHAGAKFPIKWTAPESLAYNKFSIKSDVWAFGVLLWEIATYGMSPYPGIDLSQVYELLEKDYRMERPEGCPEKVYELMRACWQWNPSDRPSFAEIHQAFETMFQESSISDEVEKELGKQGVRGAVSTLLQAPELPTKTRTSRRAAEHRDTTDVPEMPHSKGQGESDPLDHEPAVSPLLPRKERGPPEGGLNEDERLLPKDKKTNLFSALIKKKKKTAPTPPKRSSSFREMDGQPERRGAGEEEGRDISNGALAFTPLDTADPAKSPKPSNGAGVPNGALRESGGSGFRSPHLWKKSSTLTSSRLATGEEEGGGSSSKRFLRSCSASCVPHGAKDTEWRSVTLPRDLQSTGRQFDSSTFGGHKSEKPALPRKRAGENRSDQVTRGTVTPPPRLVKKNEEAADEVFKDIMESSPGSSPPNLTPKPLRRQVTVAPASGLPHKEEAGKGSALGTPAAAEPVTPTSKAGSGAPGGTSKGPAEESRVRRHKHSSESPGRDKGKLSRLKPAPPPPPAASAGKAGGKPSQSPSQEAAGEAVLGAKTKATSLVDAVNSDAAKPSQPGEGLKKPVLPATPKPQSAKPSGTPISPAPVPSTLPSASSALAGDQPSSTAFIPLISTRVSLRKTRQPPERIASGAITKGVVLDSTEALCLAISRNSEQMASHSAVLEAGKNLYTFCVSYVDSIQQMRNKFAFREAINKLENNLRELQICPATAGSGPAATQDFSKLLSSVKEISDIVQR", "type": "functional"}
{"smiles": "NC(COc1cncc(-c2ccc3c(c2)C(=Cc2ccc[nH]2)C(=O)N3)c1)Cc1ccccc1", "note": "(stereo unspecified)", "Ki": "63.1 nM (active)"}
{"smiles": "O=C1Cc2cc(-c3ccccc3)cnc2N1", "Ki": "79400 nM (active)"}
{"smiles": "O=C1Nc2cc(-c3ccc(O)cc3)ccc2C1=Cc1ccc[nH]1", "Ki": "50.1 nM (active)"}
{"molecular_target": "Glycogen synthase kinase-3 alpha (Homo sapiens, UniProt P49840)", "type": "functional"}
{"smiles": "NC(COc1cncc(-c2ccc3c(c2)C(=Cc2ccc[nH]2)C(=O)N3)c1)Cc1ccccc1", "note": "(stereo unspecified)", "Ki": "1.26 nM (active)"}
{"smiles": "O=C1Cc2cc(-c3ccccc3)cnc2N1", "Ki": "15800 nM (active)"}
{"smiles": "O=C1Nc2cc(-c3ccc(O)cc3)ccc2C1=Cc1ccc[nH]1", "Ki": "631 nM (active)"}
{"molecular_target": "Mitogen-activated protein kinase kinase kinase kinase 4 (Homo sapiens, UniProt O95819)", "sequence (O95819 whole entry)": "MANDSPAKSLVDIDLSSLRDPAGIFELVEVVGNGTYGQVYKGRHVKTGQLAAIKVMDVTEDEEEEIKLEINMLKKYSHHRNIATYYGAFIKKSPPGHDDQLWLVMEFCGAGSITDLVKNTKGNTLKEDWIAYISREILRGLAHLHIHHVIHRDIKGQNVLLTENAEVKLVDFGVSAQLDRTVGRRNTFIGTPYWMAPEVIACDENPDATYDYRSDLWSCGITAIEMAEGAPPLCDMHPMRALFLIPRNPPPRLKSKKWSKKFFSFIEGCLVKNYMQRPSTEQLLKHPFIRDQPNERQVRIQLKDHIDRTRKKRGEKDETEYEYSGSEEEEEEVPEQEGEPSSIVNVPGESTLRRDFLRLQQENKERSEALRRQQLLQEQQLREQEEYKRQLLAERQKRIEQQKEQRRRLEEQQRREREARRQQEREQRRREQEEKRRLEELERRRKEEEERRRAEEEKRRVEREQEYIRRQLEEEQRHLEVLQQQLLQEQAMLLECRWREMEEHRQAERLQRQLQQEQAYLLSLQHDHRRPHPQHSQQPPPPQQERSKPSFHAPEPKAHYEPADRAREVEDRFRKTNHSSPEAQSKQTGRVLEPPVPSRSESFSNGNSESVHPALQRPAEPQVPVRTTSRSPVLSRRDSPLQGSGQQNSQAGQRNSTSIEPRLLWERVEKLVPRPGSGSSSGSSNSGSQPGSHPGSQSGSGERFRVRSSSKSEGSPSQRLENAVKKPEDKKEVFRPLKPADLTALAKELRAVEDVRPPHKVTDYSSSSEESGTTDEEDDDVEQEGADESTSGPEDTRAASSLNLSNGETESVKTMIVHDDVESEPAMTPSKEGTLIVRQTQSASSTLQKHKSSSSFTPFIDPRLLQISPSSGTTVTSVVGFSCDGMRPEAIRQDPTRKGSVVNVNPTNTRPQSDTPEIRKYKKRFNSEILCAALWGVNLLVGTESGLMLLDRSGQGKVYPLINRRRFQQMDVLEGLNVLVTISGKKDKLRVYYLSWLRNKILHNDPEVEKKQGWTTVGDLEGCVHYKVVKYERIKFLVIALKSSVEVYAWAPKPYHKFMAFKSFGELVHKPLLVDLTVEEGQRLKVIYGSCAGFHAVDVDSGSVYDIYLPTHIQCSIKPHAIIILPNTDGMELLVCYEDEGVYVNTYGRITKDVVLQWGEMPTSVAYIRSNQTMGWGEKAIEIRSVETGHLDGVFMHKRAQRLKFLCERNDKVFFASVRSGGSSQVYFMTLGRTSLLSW", "type": "functional"}
{"smiles": "NC(COc1cncc(-c2ccc3c(c2)C(=Cc2ccc[nH]2)C(=O)N3)c1)Cc1ccccc1", "note": "(stereo unspecified)", "Ki": "5.01 nM (active)"}
{"smiles": "O=C1Cc2cc(-c3ccccc3)cnc2N1", "Ki": "79400 nM (active)"}
{"smiles": "O=C1Nc2cc(-c3ccc(O)cc3)ccc2C1=Cc1ccc[nH]1", "Ki": "20 nM (active)"}
{"molecular_target": "Hepatocyte growth factor receptor (Homo sapiens, UniProt P08581)", "type": "functional"}
{"smiles": "NC(COc1cncc(-c2ccc3c(c2)C(=Cc2ccc[nH]2)C(=O)N3)c1)Cc1ccccc1", "note": "(stereo unspecified)", "Ki": "316 nM (active)"}
{"smiles": "O=C1Cc2cc(-c3ccccc3)cnc2N1", "Ki": "25100 nM (active)"}
{"smiles": "O=C1Nc2cc(-c3ccc(O)cc3)ccc2C1=Cc1ccc[nH]1", "Ki": "2510 nM (active)"}
{"molecular_target": "Dual specificity mitogen-activated protein kinase kinase 2 (Homo sapiens, UniProt P36507)", "sequence (P36507 whole entry)": "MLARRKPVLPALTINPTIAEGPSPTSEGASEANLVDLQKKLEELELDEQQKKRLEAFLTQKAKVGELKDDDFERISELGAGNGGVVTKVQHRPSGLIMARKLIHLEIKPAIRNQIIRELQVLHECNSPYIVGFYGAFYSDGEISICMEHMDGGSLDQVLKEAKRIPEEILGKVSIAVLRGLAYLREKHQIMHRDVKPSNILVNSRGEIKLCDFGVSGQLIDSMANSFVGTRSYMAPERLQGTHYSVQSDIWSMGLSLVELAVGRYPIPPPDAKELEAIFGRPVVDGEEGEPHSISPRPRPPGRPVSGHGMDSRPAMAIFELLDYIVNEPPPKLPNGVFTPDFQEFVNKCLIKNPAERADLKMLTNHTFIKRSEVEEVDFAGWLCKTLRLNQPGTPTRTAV", "experiment": "Navigating the Kinome. Panel member name: MAP2K2", "type": "functional"}
{"smiles": "NC(COc1cncc(-c2ccc3c(c2)C(=Cc2ccc[nH]2)C(=O)N3)c1)Cc1ccccc1", "note": "(stereo unspecified)", "Ki": "316 nM (active)"}
{"smiles": "O=C1Cc2cc(-c3ccccc3)cnc2N1", "Ki": "50100 nM (active)"}
{"smiles": "O=C1Nc2cc(-c3ccc(O)cc3)ccc2C1=Cc1ccc[nH]1", "Ki": "> 3980 nM (inactive)"}
{"molecular_target": "Dual specificity mitogen-activated protein kinase kinase 1 (Homo sapiens, UniProt Q02750)", "sequence (Q02750 whole entry)": "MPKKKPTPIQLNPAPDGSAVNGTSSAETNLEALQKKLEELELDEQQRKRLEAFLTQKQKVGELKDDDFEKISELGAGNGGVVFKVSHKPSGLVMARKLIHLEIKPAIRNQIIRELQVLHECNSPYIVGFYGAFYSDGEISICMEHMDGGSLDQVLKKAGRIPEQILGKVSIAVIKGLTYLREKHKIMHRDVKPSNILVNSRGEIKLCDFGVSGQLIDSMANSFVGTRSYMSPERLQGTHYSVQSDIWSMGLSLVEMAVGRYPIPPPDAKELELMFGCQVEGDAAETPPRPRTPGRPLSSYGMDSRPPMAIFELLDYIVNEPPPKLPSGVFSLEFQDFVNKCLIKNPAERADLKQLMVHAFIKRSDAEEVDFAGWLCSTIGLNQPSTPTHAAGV", "experiment": "Navigating the Kinome. Panel member name: MAP2K1", "type": "functional"}
{"smiles": "NC(COc1cncc(-c2ccc3c(c2)C(=Cc2ccc[nH]2)C(=O)N3)c1)Cc1ccccc1", "note": "(stereo unspecified)", "Ki": "316 nM (active)"}
{"smiles": "O=C1Cc2cc(-c3ccccc3)cnc2N1", "Ki": "79400 nM (active)"}
{"smiles": "O=C1Nc2cc(-c3ccc(O)cc3)ccc2C1=Cc1ccc[nH]1", "Ki": "1260 nM (active)"}
{"molecular_target": "Vascular endothelial growth factor receptor 2 (Homo sapiens, UniProt P35968)", "type": "functional"}
{"smiles": "NC(COc1cncc(-c2ccc3c(c2)C(=Cc2ccc[nH]2)C(=O)N3)c1)Cc1ccccc1", "note": "(stereo unspecified)", "Ki": "0.631 nM (active)"}
{"smiles": "O=C1Cc2cc(-c3ccccc3)cnc2N1", "Ki": "31600 nM (active)"}
{"smiles": "O=C1Nc2cc(-c3ccc(O)cc3)ccc2C1=Cc1ccc[nH]1", "Ki": "12.6 nM (active)"}
{"molecular_target": "Cyclin-dependent kinase 9 (Homo sapiens, UniProt P50750)", "sequence (P50750 whole entry)": "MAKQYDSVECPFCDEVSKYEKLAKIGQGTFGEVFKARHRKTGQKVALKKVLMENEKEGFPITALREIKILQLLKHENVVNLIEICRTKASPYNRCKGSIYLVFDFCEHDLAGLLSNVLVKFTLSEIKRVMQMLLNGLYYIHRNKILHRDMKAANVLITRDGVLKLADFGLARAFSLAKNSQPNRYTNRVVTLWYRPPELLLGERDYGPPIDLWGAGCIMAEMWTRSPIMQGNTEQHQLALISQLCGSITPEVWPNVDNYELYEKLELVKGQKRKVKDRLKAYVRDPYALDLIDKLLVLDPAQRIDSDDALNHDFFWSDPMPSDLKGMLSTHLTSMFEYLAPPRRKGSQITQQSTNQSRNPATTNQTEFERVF", "type": "functional"}
{"smiles": "NC(COc1cncc(-c2ccc3c(c2)C(=Cc2ccc[nH]2)C(=O)N3)c1)Cc1ccccc1", "note": "(stereo unspecified)", "Ki": "158 nM (active)"}
{"smiles": "O=C1Cc2cc(-c3ccccc3)cnc2N1", "Ki": "15800 nM (active)"}
{"smiles": "O=C1Nc2cc(-c3ccc(O)cc3)ccc2C1=Cc1ccc[nH]1", "Ki": "79.4 nM (active)"}
{"molecular_target": "Platelet-derived growth factor receptor alpha (Homo sapiens, UniProt P16234)", "experiment": "Navigating the Kinome. Panel member name: PDGFRA", "type": "functional"}
{"smiles": "NC(COc1cncc(-c2ccc3c(c2)C(=Cc2ccc[nH]2)C(=O)N3)c1)Cc1ccccc1", "note": "(stereo unspecified)", "Ki": "126 nM (active)"}
{"smiles": "O=C1Cc2cc(-c3ccccc3)cnc2N1", "Ki": "39800 nM (active)"}
{"smiles": "O=C1Nc2cc(-c3ccc(O)cc3)ccc2C1=Cc1ccc[nH]1", "Ki": "501 nM (active)"}
{"molecular_target": "Macrophage-stimulating protein receptor (Homo sapiens, UniProt Q04912)", "experiment": "Navigating the Kinome. Panel member name: MST1R", "type": "functional"}
{"smiles": "NC(COc1cncc(-c2ccc3c(c2)C(=Cc2ccc[nH]2)C(=O)N3)c1)Cc1ccccc1", "note": "(stereo unspecified)", "Ki": "1.58 nM (active)"}
{"smiles": "O=C1Cc2cc(-c3ccccc3)cnc2N1", "Ki": "79400 nM (active)"}
{"smiles": "O=C1Nc2cc(-c3ccc(O)cc3)ccc2C1=Cc1ccc[nH]1", "Ki": "63.1 nM (active)"}
{"molecular_target": "Macrophage colony-stimulating factor 1 receptor (Homo sapiens, UniProt P07333)", "type": "functional"}
{"smiles": "NC(COc1cncc(-c2ccc3c(c2)C(=Cc2ccc[nH]2)C(=O)N3)c1)Cc1ccccc1", "note": "(stereo unspecified)", "Ki": "631 nM (active)"}
{"smiles": "O=C1Cc2cc(-c3ccccc3)cnc2N1", "Ki": "63100 nM (active)"}
{"smiles": "O=C1Nc2cc(-c3ccc(O)cc3)ccc2C1=Cc1ccc[nH]1", "Ki": "1260 nM (active)"}
{"molecular_target": "Fibroblast growth factor receptor 1 (Homo sapiens, UniProt P11362)", "type": "functional"}
{"smiles": "NC(COc1cncc(-c2ccc3c(c2)C(=Cc2ccc[nH]2)C(=O)N3)c1)Cc1ccccc1", "note": "(stereo unspecified)", "Ki": "126 nM (active)"}
{"smiles": "O=C1Cc2cc(-c3ccccc3)cnc2N1", "Ki": "50100 nM (active)"}
{"smiles": "O=C1Nc2cc(-c3ccc(O)cc3)ccc2C1=Cc1ccc[nH]1", "Ki": "1260 nM (active)"}
{"molecular_target": "Dual specificity protein kinase CLK4 (Homo sapiens, UniProt Q9HAZ1)", "sequence (Q9HAZ1 whole entry)": "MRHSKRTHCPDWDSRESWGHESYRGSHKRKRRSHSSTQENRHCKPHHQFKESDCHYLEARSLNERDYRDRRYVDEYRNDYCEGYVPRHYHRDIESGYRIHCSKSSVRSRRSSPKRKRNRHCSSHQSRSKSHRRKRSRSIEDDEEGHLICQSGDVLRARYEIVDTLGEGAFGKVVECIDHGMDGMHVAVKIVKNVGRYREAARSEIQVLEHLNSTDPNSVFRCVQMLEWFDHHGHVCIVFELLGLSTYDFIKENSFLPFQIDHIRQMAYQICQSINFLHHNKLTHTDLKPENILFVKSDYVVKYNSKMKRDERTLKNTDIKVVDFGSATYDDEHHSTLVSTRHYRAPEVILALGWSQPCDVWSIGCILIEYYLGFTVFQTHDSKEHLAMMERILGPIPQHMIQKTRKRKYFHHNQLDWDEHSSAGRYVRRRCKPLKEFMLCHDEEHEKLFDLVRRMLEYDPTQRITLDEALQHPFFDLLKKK", "type": "functional"}
{"smiles": "NC(COc1cncc(-c2ccc3c(c2)C(=Cc2ccc[nH]2)C(=O)N3)c1)Cc1ccccc1", "note": "(stereo unspecified)", "Ki": "0.316 nM (active)"}
{"smiles": "O=C1Cc2cc(-c3ccccc3)cnc2N1", "Ki": "6310 nM (active)"}
{"smiles": "O=C1Nc2cc(-c3ccc(O)cc3)ccc2C1=Cc1ccc[nH]1", "Ki": "1260 nM (active)"}
{"molecular_target": "T2, Tyrosine-protein kinase receptor TYRO3 (Homo sapiens, UniProt Q06418)", "T2 sequence (Q06418 whole entry)": "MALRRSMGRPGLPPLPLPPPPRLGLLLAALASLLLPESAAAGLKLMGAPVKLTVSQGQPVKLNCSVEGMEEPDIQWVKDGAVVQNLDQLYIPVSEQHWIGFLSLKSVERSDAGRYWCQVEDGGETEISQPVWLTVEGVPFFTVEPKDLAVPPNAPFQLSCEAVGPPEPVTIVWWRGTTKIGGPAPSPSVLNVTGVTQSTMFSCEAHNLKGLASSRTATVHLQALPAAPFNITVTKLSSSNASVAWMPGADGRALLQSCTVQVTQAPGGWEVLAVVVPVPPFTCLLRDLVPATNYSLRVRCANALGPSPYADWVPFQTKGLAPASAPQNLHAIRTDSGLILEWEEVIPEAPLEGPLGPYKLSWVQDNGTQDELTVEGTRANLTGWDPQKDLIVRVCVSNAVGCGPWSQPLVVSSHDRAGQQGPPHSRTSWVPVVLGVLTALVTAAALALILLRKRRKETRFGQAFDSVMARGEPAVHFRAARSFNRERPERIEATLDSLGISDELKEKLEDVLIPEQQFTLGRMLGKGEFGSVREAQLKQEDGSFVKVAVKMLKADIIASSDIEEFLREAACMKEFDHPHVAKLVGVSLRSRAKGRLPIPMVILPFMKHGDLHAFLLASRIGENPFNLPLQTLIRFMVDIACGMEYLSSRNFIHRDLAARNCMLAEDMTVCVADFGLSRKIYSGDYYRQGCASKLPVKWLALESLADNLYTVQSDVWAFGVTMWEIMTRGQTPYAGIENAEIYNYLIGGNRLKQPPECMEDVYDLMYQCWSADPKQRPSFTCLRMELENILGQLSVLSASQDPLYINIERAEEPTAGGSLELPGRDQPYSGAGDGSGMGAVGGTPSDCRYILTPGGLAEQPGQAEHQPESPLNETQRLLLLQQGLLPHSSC", "type": "functional"}
{"smiles": "NC(COc1cncc(-c2ccc3c(c2)C(=Cc2ccc[nH]2)C(=O)N3)c1)Cc1ccccc1", "note": "(stereo unspecified)", "Ki": "25.1 nM (active)"}
{"smiles": "O=C1Cc2cc(-c3ccccc3)cnc2N1", "Ki": "20000 nM (active)"}
{"smiles": "O=C1Nc2cc(-c3ccc(O)cc3)ccc2C1=Cc1ccc[nH]1", "Ki": "2000 nM (active)"}
{"molecular_target": "Dual specificity tyrosine-phosphorylation-regulated kinase 1B (Homo sapiens, UniProt Q9Y463)", "experiment": "Navigating the Kinome. Panel member name: DYRK1B", "type": "functional"}
{"smiles": "NC(COc1cncc(-c2ccc3c(c2)C(=Cc2ccc[nH]2)C(=O)N3)c1)Cc1ccccc1", "note": "(stereo unspecified)", "Ki": "1 nM (active)"}
{"smiles": "O=C1Cc2cc(-c3ccccc3)cnc2N1", "Ki": "50100 nM (active)"}
{"smiles": "O=C1Nc2cc(-c3ccc(O)cc3)ccc2C1=Cc1ccc[nH]1", "Ki": "398 nM (active)"}
{"molecular_target": "5'-AMP-activated protein kinase catalytic subunit alpha-1 (Homo sapiens, UniProt Q13131)", "sequence (Q13131 whole entry)": "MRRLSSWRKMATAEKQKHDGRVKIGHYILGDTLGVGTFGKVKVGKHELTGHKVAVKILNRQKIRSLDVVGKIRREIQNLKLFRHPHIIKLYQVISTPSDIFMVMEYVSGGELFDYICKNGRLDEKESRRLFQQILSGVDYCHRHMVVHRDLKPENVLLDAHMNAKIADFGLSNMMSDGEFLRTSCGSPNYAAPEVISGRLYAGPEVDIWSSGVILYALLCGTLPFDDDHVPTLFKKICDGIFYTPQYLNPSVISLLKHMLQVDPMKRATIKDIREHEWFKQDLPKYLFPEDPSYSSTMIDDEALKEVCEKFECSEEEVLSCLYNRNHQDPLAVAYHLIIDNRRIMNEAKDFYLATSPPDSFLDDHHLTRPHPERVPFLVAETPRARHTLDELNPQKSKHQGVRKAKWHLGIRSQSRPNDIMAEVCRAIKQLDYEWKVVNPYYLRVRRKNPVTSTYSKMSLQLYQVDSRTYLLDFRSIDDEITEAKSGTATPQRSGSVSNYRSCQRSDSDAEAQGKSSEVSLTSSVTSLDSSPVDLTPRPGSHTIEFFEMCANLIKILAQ", "type": "functional"}
{"smiles": "NC(COc1cncc(-c2ccc3c(c2)C(=Cc2ccc[nH]2)C(=O)N3)c1)Cc1ccccc1", "note": "(stereo unspecified)", "Ki": "3.16 nM (active)"}
{"smiles": "O=C1Cc2cc(-c3ccccc3)cnc2N1", "Ki": "50100 nM (active)"}
{"smiles": "O=C1Nc2cc(-c3ccc(O)cc3)ccc2C1=Cc1ccc[nH]1", "Ki": "158 nM (active)"}
